For test [1], the target named is T1, E1p-ec (Escherichia coli, UniProt P0AFG8).
Test [2] has as its target T2, E1p-h (Homo sapiens, UniProt P08559+P11177).
T2 sequence (P08559 30-390): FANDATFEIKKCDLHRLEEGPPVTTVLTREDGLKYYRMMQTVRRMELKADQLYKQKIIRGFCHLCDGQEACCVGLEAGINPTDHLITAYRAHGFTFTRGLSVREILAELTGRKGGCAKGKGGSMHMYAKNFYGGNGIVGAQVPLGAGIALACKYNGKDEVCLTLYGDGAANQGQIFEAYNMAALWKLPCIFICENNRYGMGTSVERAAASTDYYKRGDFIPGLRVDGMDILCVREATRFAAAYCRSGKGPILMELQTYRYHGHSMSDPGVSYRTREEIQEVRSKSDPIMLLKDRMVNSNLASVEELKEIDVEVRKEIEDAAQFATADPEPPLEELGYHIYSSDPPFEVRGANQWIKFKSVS
T2 sequence (P11177 31-359): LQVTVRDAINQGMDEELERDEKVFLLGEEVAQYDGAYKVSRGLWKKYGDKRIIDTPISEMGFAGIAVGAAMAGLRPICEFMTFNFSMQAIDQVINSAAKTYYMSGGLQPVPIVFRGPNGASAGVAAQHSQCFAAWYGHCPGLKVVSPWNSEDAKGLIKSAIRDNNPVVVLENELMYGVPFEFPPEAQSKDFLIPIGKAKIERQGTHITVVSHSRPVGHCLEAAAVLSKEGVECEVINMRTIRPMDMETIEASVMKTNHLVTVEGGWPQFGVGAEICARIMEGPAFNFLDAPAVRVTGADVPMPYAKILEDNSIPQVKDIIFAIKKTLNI
Briefly: MS reductive acetylation of the E2p-h lipoyl domain. As to conditions: E1p-h with cofactor and pyruvate. The format is biochemical.

Test [3] addresses PDHc-h (Homo sapiens, UniProt P08559+P11177). Briefly: Overall PDHc-h activity by formation of NADH at 340 nm. The test is classed as biochemical.
The target of test [4] is T3, OGDHc-h (Homo sapiens, UniProt Q02218).
T3 sequence (Q02218 41-1023): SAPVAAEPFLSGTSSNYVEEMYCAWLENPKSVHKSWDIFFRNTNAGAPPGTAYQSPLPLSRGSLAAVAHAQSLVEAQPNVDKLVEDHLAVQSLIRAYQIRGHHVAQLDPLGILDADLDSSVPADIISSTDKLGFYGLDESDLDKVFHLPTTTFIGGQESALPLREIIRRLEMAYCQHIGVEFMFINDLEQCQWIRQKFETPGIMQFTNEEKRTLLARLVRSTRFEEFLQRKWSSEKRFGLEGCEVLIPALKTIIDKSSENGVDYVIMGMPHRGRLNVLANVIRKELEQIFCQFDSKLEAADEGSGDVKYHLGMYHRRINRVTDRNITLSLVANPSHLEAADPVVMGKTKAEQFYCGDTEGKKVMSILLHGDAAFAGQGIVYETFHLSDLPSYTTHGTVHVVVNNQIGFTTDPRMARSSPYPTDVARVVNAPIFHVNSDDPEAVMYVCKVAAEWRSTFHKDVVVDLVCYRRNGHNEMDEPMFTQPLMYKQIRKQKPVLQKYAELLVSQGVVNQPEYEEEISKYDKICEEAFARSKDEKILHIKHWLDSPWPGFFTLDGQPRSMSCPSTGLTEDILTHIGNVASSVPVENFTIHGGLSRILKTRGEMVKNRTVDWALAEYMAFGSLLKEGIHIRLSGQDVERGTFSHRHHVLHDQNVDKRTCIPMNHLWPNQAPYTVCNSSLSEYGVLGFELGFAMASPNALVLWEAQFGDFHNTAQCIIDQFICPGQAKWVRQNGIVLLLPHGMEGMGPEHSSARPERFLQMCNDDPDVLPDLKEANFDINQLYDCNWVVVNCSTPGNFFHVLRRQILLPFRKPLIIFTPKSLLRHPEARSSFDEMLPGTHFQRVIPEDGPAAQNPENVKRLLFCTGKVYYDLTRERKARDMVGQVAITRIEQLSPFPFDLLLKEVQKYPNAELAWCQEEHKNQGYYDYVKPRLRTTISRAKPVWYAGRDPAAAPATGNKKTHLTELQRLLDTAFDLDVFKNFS
T3 sequence (P36957 68-453 partner): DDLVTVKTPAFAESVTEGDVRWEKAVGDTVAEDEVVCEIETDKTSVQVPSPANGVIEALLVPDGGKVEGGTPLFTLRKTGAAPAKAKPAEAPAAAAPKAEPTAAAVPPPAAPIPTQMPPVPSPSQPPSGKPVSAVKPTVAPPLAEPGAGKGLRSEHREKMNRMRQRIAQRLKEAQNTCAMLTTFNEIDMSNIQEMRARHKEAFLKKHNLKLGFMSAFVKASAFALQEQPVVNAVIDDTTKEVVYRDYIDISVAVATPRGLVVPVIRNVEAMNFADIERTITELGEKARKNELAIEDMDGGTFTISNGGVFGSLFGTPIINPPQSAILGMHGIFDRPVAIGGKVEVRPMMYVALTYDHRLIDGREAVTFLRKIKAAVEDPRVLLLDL
T3 sequence (P09622 36-509 partner): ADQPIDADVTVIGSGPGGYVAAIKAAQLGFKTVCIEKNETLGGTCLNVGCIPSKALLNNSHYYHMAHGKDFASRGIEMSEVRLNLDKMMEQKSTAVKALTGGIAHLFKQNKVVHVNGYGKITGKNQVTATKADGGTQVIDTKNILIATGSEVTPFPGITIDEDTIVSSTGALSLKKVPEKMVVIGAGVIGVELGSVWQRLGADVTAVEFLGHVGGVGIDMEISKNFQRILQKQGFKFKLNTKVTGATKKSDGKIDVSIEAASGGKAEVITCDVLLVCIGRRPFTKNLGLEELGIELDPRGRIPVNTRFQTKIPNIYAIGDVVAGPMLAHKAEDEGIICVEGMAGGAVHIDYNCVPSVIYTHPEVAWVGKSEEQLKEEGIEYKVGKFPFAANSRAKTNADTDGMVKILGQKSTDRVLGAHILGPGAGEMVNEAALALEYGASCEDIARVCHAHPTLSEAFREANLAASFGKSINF
Description: Overall OGDHc-h activity by formation of NADH. The test is classed as biochemical.

Test [5] concerns the target T4, DXPS (Escherichia coli, UniProt P77488). The settings on record: apo-DXPS with 0.15 mM cofactor, 5 °C, 15 h.
The target in test [6] is PDHc-ec (Escherichia coli, UniProt P0AFG8). As to conditions: cofactor 0.2 mM in assay, no ThDP present for MeOThDP.
The target in test [7] is T4, DXPS.
In test [8] the target is T1, E1p-ec. The settings on record: cofactor 0.2 mM.
The target of test [9] is T2, E1p-h. Description: Quenching of intrinsic fluorescence of E1p-h. The format is binding.

Where “and” joins values, the source holds several entries; their conditions need not be identical. Equal entries are not always repeated. Where two headings read alike, the source gives them in different places.

`COc1ncc(C[n+]2csc(CCOP(=O)(O)OP(=O)(O)O)c2C)c(N)n1` [MeOThDP, 2′-methoxythiamin diphosphate]: the “percent of the E1p-ec fluorescence quenched” value in test [1] stood at 5.8%. The “rate of reductive acetylation of LD1-h” value in test [2] is 6.38 s⁻¹. For the same compound, the “pH of maximal kcat in the overall PDHc-h activity” value in [3] (E1p-h complexed with MeOThDP) amounted to 7.25. Also, in [4], the “overall OGDHc activity, percent of that with ThDP” value is listed as 64%. The “formation of (R)-acetolactate from pyruvate” value in test [5] is listed as “not the case”. In addition, the “overall PDHc-ec activity, percent of that with ThDP” value in [6] was 8.6% and 11% and 5.9%. Further, in [7], the “percent of quenching of the fluorescence of apo-DXPS” value worked out at 27%. The dissociation constant (Kd) was 6.24 ± 0.23 µM in test [7] (read-out: Kd from quenching of the intrinsic fluorescence of DXPS, apo-DXPS, pH 8.0, 25 °C) and 16.2 ± 4.5 µM in [9] (read-out: Kd from quenching of E1p-h fluorescence). Moreover, the “E1p-ec specific activity, percent of that with ThDP” value in [8] is recorded as about 19%. Further, the “percent of E1p-h fluorescence quenched” value in test [9] was determined as 4%.
Turning to `Cc1ncc(C[n+]2csc(CCOP(=O)([O-])OP(=O)(O)O)c2C)c(N)n1` [ThDP, thiamin diphosphate], the “percent of the E1p-ec fluorescence quenched” value in [1] is listed as 9.9%. For the same compound, in test [2], the “rate of reductive acetylation of LD1-h” value stood at 10.25 s⁻¹. The “overall PDHc-h activity, percent of that with ThDP” value in [3] (cofactor 0.2 or 0.5 mM) was found to be 100%. Further, the “overall OGDHc activity, percent of that with ThDP” value in [4] came to 100%. For the same compound, the “formation of (R)-acetolactate from pyruvate” value in test [5] is reported as “formation of (R)-acetolactate”. Further, in test [6], the “overall PDHc-ec activity, percent of that with ThDP” value is 100%. Moreover, the “percent of quenching of the fluorescence of apo-DXPS” value in test [7] is 35%. The “E1p-ec specific activity, percent of that with ThDP” value in test [8] was determined as 100%. The E1p-ec specific activity in test [8] (E1p-ec alone, model reaction) is given as 0.36 ± 0.01 µmol min^−1 (mg of E1p-ec)^−1. In addition, in test [9], the Kd came to 7.2 ± 0.5 µM and the “percent of E1p-h fluorescence quenched” value amounted to 19%.

As a reminder, the Kd is the constant that tells how readily two partners part at equilibrium.

Values taken from article PMC4852132 (Biochemistry, 2016).
